Assay results from patent US20260083865A1, “PROSTATE SPECIFIC MEMBRANE ANTIGEN (PSMA) LIGANDS AND USE THEREOF” (priority 2022, published 2026).
Where two headings read alike, the source gives them in different places. Numbered stars: 1 amine (or outer) side, 2 acyl side, 3 side chain; on linkers, the order of the positions; unused ones are H or OH. Bridge positions count the residues as written; N and C are the ends. Square brackets hold non-standard residues; d marks the D form. Peptide text beside a SMILES is read from it. * marks the point of attachment. DOTA = O=C(O)CN1CCN(CC(=O)O)CCN(CC(=O)*)CCN(CC(=O)O)CC1; Phe(3-Cl) = N[C@@H](Cc1cccc(Cl)c1)C(=O)O; Phe(4-Cl) = N[C@@H](Cc1ccc(Cl)cc1)C(=O)O; NMeR = CN[C@@H](CCCNC(=N)N)C(=O)O; X1 = O=C(CC1CCN([*:1])CC1)[*:2]; Cit = NC(=O)NCCC[C@H](N)C(=O)O; d(αMeS) = C[C@@](N)(CO)C(=O)O; Tle = CC(C)(C)[C@H](N)C(=O)O; αMeP = C[C@@]1(C(=O)O)CCCN1; Isovaleryl = CC(C)CC(=O)*; Nle = CCCC[C@H](N)C(=O)O; AEEA = NCCOCCOCC(=O)O; Aib = CC(C)(N)C(=O)O; CO = O=C([*:1])[*:2]; NHBu = CCCCN*

Experiments:
[1] = target: T1, PSMA-expressing C4-2 cells (Homo sapiens, UniProt Q04609); assay: FACS binding assay (competition with 50 nM PSM-0183); settings: read-out: pIC50 [C4-2] CAT (converted)
T1 construct: PSMA-expressing C4-2 cells (ATCC, Cat. No. CRL-3314) were cultured in RPMI-1640; host or cells: C4-2 cells
T1 sequence (Q04609 whole entry): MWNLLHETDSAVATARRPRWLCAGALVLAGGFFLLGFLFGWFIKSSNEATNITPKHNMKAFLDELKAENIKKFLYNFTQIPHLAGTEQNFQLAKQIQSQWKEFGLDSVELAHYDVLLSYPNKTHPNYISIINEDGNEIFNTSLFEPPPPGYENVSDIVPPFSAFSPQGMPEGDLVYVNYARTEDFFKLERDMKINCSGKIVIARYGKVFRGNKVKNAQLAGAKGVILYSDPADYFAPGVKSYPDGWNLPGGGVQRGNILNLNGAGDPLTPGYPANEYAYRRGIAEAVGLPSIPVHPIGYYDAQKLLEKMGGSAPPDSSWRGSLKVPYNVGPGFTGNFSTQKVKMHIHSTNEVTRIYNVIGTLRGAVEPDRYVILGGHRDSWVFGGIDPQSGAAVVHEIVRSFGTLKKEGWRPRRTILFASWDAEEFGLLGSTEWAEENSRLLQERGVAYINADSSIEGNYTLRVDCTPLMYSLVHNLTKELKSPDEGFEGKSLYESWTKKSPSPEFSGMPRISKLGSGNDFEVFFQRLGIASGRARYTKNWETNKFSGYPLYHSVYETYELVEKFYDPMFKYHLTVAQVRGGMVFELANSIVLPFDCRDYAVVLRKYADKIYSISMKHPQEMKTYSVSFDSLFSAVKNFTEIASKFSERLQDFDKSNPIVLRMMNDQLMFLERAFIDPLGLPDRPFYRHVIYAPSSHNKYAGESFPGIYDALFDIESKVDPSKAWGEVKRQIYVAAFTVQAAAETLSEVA
Summary of the method: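 C4-2 cells were incubated 1 h at 4 °C with 50 nM AF488-labelled peptide PSM-0183 plus increasing test compound concentrations, then washed twice in ice-cold buffer. Median fluorescence in the AF488 channel was read by flow cytometry. IC50/pIC50 was derived by 4PL fitting of MFI versus concentration.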

[2] = target: T2, Fc-fusion protein of human PSMA (hPSMA-Fc) (Homo sapiens, UniProt Q04609); assay: Surface plasmon resonance assay (Biacore T200, single cycle kinetic); type: binding; settings: read-out: pKD CAT (converted)
T2 construct: purchased Acro Biosystems PSA-H5264
T2 sequence (Q04609 44-750 limits assumed): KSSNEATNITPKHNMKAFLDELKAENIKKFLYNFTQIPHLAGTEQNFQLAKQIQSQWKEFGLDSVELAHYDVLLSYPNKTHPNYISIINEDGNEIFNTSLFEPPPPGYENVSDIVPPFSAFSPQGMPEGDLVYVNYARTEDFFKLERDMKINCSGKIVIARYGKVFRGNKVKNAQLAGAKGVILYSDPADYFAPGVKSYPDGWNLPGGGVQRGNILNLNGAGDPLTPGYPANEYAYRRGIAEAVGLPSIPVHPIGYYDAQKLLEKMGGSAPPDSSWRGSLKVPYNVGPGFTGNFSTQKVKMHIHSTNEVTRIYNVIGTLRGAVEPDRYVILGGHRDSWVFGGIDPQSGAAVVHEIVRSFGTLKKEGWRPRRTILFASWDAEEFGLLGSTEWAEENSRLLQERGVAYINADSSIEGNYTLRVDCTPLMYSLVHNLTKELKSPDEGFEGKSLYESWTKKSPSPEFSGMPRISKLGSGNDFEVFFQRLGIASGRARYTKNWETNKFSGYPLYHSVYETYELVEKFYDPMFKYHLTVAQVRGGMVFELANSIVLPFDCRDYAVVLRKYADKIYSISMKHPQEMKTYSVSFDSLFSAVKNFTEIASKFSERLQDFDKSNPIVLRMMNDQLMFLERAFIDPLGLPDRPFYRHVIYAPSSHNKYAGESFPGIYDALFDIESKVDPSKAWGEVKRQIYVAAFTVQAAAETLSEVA
Summary of the method: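 hPSMA-Fc was captured (~1000 RU) on an Fc-binding-peptide CM5 chip, and compounds were run in single cycle kinetic mode at 25° C in HBST with 0.1% DMSO. Double-blank-corrected sensorgrams were fitted to a 1:1 Langmuir model to give KD, reported as pKD.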

[3] = FACS binding, C4-2 cells, competition with 50 nM PSM-0183, category
[4] = SPR, hPSMA-Fc, single cycle kinetic, 25° C., category
[5] = FACS binding, PSMA-expressing C4-2 cells, pIC50 category
[6] = PSMA SPR assay, hPSMA-Fc, 25° C., pKD category
[7] = pIC50 category of FACS binding, C4-2 cells
[8] = pKD category for PSMA SPR activity assay, hPSMA-Fc, 25° C.

Compound | IC50 [1, 5] | Kd [2, 6] | IC50 [1, 7] | Kd [2, 8] | also measured
CC(=O)N[C@H](C(=O)NC(C)(C)C(=O)N[C@@H](Cc1ccccc1)C(=O)N[C@H]1CSSC[C@@H](C(=O)N[C@H](C(=O)N[C@H](C(N)=O)[C@@H](C)O)C(C)(C)C)NC(=O)[C@H](CC(N)=O)NC(=O)[C@]2(C)CCCN2C(=O)[C@H](CCCNC(=N)N)NC(=O)[C@H](CCCCN)NC1=O)[C@@H](C)O [PSM-0233, Ac-Thr-Aib-Phe-[Cys-Lys-Arg-Pam-Asn-Cys]-Tle-Thr-NHZ] (Ac-T[Aib]FCKR[αMeP]NC[Tle]T-NH2; disulfide 4-9) |  |  |  |  | IC50 [1, 3]: < 200 nM; Kd [2, 4]: < 12.6 nM
CC(=O)N[C@H](C(=O)NC(C)(C)C(=O)N[C@@H](Cc1ccccc1)C(=O)N[C@H]1CSSC[C@H](C(=O)N[C@H](C(=O)N[C@H](C(N)=O)[C@@H](C)O)C(C)(C)C)NC(=O)[C@H](CC(N)=O)NC(=O)C(C)(C)NC(=O)[C@H](CCCNC(=N)N)NC(=O)[C@H](CCCCN)NC1=O)[C@@H](C)O [PSM-0331, Ac-Thr-Aib-Phe-[Cys-Lys-Arg-Aib-Asn-cys]-Tle-Thr-NH2] (Ac-T[Aib]FCKR[Aib]N[dC][Tle]T-NH2; disulfide 4-9) | 200 to 1260 nM | > 501 nM |  |  | 
CC(C)CC(=O)NC(C)(C)C(=O)N[C@@H](Cc1ccccc1)C(=O)N[C@H]1CSSC[C@@H](C(=O)N[C@H](C(=O)N[C@H](C(=O)N[C@H](CCCCNC(=O)CN2CCN(CC(=O)O)CCN(CC(=O)O)CCN(CC(=O)O)CC2)C(N)=O)[C@@H](C)O)C(C)(C)C)NC(=O)[C@H](CC(N)=O)NC(=O)C(C)(C)NC(=O)[C@H](CCCNC(=N)N)NC(=O)[C@H](CCCCN)NC1=O [PSM-0292, Iva-Aib-Phe-[Cys-Lys-Arg-Aib-Asn-Cys]-Tle-Thr-lys(DOTA)-NH2] (Isovaleryl-[Aib]FCKR[Aib]NC[Tle]T[dK](DOTA)-NH2; disulfide 3-8) | < 200 nM | 12.6 to 126 nM |  |  | 
CCCCNC(=O)N[C@H](C(=O)NC(C)(C)C(=O)N[C@@H](Cc1cccc(Cl)c1)C(=O)N[C@H]1CSSC[C@@H](C(=O)N[C@H](C(=O)N[C@H](C(=O)N2CCC(CC(=O)N[C@H](CCCCNC(=O)CN3CCN(CC(=O)O)CCN(CC(=O)O)CCN(CC(=O)O)CC3)C(N)=O)CC2)[C@@H](C)O)C(C)(C)C)NC(=O)[C@H](CC(N)=O)NC(=O)C(C)(C)NC(=O)[C@H](CCCNC(=N)N)NC(=O)[C@H](CCCCN)NC1=O)[C@@H](C)O [PSM-0470, nBuCAyl-Thr-Aib-Mcf-[Cys-Lys-Arg-Aib-Asn-Cys]-Tle-Thr-Cmp-lys(DOTA)-NH2] ({NHBu-CO}-T[Aib][Phe(3-Cl)]CKR[Aib]NC[Tle]T[X1][dK](DOTA)-NH2; disulfide 4-9) |  |  | < 200 nM | < 12.6 nM | 
CCCC[C@H](NC(=O)[C@@H]1CSSC[C@H](NC(=O)[C@H](Cc2ccccc2)NC(=O)[C@H](C)NC(=O)[C@@H](NC(C)=O)[C@@H](C)O)C(=O)N[C@@H](CCCCN)C(=O)N[C@@H](CCCNC(=N)N)C(=O)NC(C)(C)C(=O)N[C@@H](CC(N)=O)C(=O)N1)C(=O)N[C@H](C(=O)N[C@@H](CC(=O)O)C(N)=O)[C@@H](C)O [PSM-0578, Ac-Thr-Ala-Phe-[Cys-Lys-Arg-Aib-Asn-Cys]-Nle-Thr-Asp-NH2] (Ac-TAFCKR[Aib]NC[Nle]TD-NH2; disulfide 4-9) |  |  |  |  | IC50 ([1]; FACS binding, C4-2 cells, category): < 200 nM; Kd ([2]; PSMA SPR assay, category): 12.6 to 126 nM
CC(=O)N[C@H](C(=O)NC(C)(C)C(=O)N[C@@H](Cc1ccccc1)C(=O)N[C@H]1CSSC[C@@H](C(=O)N[C@H](C(=O)N[C@H](C(=O)N[C@@H](CC(=O)O)C(N)=O)[C@@H](C)O)C(C)(C)C)NC(=O)[C@H](CC(N)=O)NC(=O)[C@H](C)NC(=O)[C@H](CCCNC(=N)N)NC(=O)[C@H](CCC(N)=O)NC1=O)[C@@H](C)O [PSM-0435, Ac-Thr-Aib-Phe-[Cys-Gln-Arg-Ala-Asn-Cys]-Tle-Thr-Asp-NH2] (Ac-T[Aib]FCQRANC[Tle]TD-NH2; disulfide 4-9) |  |  | < 200 nM | 12.6 to 126 nM | 
CC(=O)N[C@H](C(=O)NC(C)(C)C(=O)N[C@@H](Cc1ccc(Cl)cc1)C(=O)N[C@H]1CSSC[C@@H](C(=O)N[C@H](C(=O)N[C@H](C(=O)N2CCC(CC(=O)N[C@H](CCCCNC(=O)CN3CCN(CC(=O)O)CCN(CC(=O)O)CCN(CC(=O)O)CC3)C(N)=O)CC2)[C@@H](C)O)C(C)(C)C)NC(=O)[C@H](CC(N)=O)NC(=O)C(C)(C)NC(=O)[C@H](CCCNC(N)=O)NC(=O)[C@H](CCCCN)NC1=O)[C@@H](C)O [PSM-0329, Ac-Thr-Aib-Pcf-[Cys-Lys-Cit-Aib-Asn-Cys]-Tle-Thr-Cmp-lys(DOTA)-NH2] (Ac-T[Aib][Phe(4-Cl)]CK[Cit][Aib]NC[Tle]T[X1][dK](DOTA)-NH2; disulfide 4-9) | < 200 nM | 12.6 to 126 nM |  |  | 
C[C@@H](O)[C@H](NC(=O)[C@@H](NC(=O)[C@@H]1CSSC[C@H](NC(=O)[C@H](Cc2ccc(Cl)cc2)NC(=O)[C@H](CCC(=O)O)NC(=O)[C@@H](NC(=O)CC2CCN(C(=O)CN3CCN(CC(=O)O)CCN(CC(=O)O)CCN(CC(=O)O)CC3)CC2)[C@@H](C)O)C(=O)N[C@@H](CCCCN)C(=O)N[C@@H](CCCNC(=N)N)C(=O)NC(C)(C)C(=O)N[C@@H](CC(N)=O)C(=O)N1)C(C)(C)C)C(N)=O [PSM-0276, DOTA-Cmp-Thr-Glu-Pcf-[Cys-Lys-Arg-Aib-Asn-Cys]-Tle-Thr-NH2] ({DOTA}-[X1]TE[Phe(4-Cl)]CKR[Aib]NC[Tle]T-NH2; disulfide 5-10) | > 3160 nM | > 501 nM |  |  | 
CC(=O)N[C@H](C(=O)NC(C)(C)C(=O)N[C@@H](Cc1cccc(Cl)c1)C(=O)N[C@H]1CSSC[C@@H](C(=O)N[C@H](C(=O)N[C@H](C(=O)N[C@@H](CC(=O)O)C(N)=O)[C@@H](C)O)C(C)(C)C)NC(=O)[C@H](CC(N)=O)NC(=O)C(C)(C)NC(=O)[C@H](CCCNC(=N)N)NC(=O)[C@H](CCCCN)NC1=O)[C@@H](C)O [PSM-0383, Ac-Thr-Aib-Mcf-[Cys-Lys-Arg-Aib-Asn-Cys]-Tle-Thr-Asp-NH2] (Ac-T[Aib][Phe(3-Cl)]CKR[Aib]NC[Tle]TD-NH2; disulfide 4-9) |  |  | < 200 nM | < 12.6 nM | 
C[C@@H](O)[C@H](NC(=O)[C@@H](NC(=O)[C@@H]1CSSC[C@H](NC(=O)[C@H](Cc2ccc(Cl)cc2)NC(=O)[C@@](C)(CO)NC(=O)[C@@H](NC(=O)CC2CCN(C(=O)CN3CCN(CC(=O)O)CCN(CC(=O)O)CCN(CC(=O)O)CC3)CC2)[C@@H](C)O)C(=O)N[C@@H](CCCCN)C(=O)N[C@@H](CCCNC(=N)N)C(=O)NC(C)(C)C(=O)N[C@@H](CC(N)=O)C(=O)N1)C(C)(C)C)C(N)=O [PSM-0256, DOTA-Cmp-Thr-ams-Pcf-[Cys-Lys-Arg-Aib-Asn-Cys]-Tle-Thr-NH2] ({DOTA}-[X1]T[d(αMeS)][Phe(4-Cl)]CKR[Aib]NC[Tle]T-NH2; disulfide 5-10) |  |  |  |  | IC50 [1, 3]: < 200 nM; Kd [2, 4]: < 12.6 nM
C[C@@H](O)[C@H](NC(=O)[C@@H](NC(=O)[C@@H]1CSSC[C@H](NC(=O)[C@H](Cc2ccc(Cl)cc2)NC(=O)C(C)(C)NC(=O)[C@@H](NC(=O)CC2CCN(C(=O)CN3CCN(CC(=O)O)CCN(CC(=O)O)CCN(CC(=O)O)CC3)CC2)[C@@H](C)O)C(=O)N[C@@H](CCCCN)C(=O)N(C)[C@@H](CCCNC(=N)N)C(=O)NC(C)(C)C(=O)N[C@@H](CC(N)=O)C(=O)N1)C(C)(C)C)C(N)=O [PSM-0340, DOTA-Cmp-Thr-Aib-Pcf-[Cys-Lys-Nmr-Aib-Asn-Cys]-Tle-Thr-NH2] ({DOTA}-[X1]T[Aib][Phe(4-Cl)]CK[NMeR][Aib]NC[Tle]T-NH2; disulfide 5-10) | 200 to 1260 nM | < 12.6 nM |  |  | 
C[C@@H](O)[C@H](NC(=O)[C@@H](NC(=O)[C@@H]1CSSC[C@H](NC(=O)[C@H](Cc2ccccc2)NC(=O)C(C)(C)NC(=O)[C@@H](NC(=O)COCCOCCNC(=O)CN2CCN(CC(=O)O)CCN(CC(=O)O)CCN(CC(=O)O)CC2)[C@@H](C)O)C(=O)N[C@@H](CCCCN)C(=O)N[C@@H](CCCNC(=N)N)C(=O)NC(C)(C)C(=O)N[C@@H](CC(N)=O)C(=O)N1)C(C)(C)C)C(N)=O [PSM-0505, DOTA-020c-Thr-Aib-Phe-[Cys-Lys-Arg-Aib-Asn-Cys]-Tle-Thr-NH2] ({DOTA-AEEA}-T[Aib]FCKR[Aib]NC[Tle]T-NH2; disulfide 4-9) |  |  | < 200 nM | < 12.6 nM | 
C[C@@H](O)[C@H](NC(=O)[C@@H](NC(=O)[C@@H]1CSSC[C@H](NC(=O)[C@H](Cc2cccc(Cl)c2)NC(=O)C(C)(C)NC(=O)[C@@H](NC(=O)CC2CCN(C(=O)CN3CCN(CC(=O)O)CCN(CC(=O)O)CCN(CC(=O)O)CC3)CC2)[C@@H](C)O)C(=O)N[C@@H](CCCCN)C(=O)N[C@@H](CCCNC(N)=O)C(=O)NC(C)(C)C(=O)N[C@@H](CC(N)=O)C(=O)N1)C(C)(C)C)C(N)=O [PSM-0431, DOTA-Cmp-Thr-Aib-Mcf-[Cys-Lys-Cit-Aib-Asn-Cys]-Tle-Thr-NH2] ({DOTA}-[X1]T[Aib][Phe(3-Cl)]CK[Cit][Aib]NC[Tle]T-NH2; disulfide 5-10) |  |  | 200 to 1260 nM | < 12.6 nM | 
